Reference: US8609610B2, “Inhibitors of the trypsin-like site of the proteasome and methods of use thereof” (Trustees of Dartmouth College, priority 2011, dated 2013)

Assays:
KMS-12-BM cells = assay: ALAMAR BLUE cell viability assay; type: cell-based; conditions: viability at 48 h
Experimental: (§1) RPMI-8226 and NCI-H929 cells were cultured in RPMI-1640 supplemented with 10% fetal bovine serum, penicillin, streptomycin, and plasmocin in 5% CO2 humidified incubator. HEK-293T cells were cultured in DMEM containing 10% fetal calf serum, 10 units/mL penicillin, and 10 μg/mL streptomycin in a 7% CO2 humidified incubator. Viability of multiple myeloma cells was measured with ALAMAR BLUE mitochondrial dye conversion assay. Viability of peripheral blood mononuclear cells (PBMNCs) was measured using CELL TITER-GLO luminescent cell viability assay (Promega), which is based on quantification of ATP present in the cells. Caspase-3/7 activity was measured using APO-ONE 3/7 homogeneous assay (Promega).

NCI-H929 cells = assay: ALAMAR BLUE cell viability assay; type: cell-based; conditions: NCI-H929, viability at 48 h
Experimental: as §1

[1] = target: T1, trypsin-like sites (β2) of proteasome in MM cells (Homo sapiens, UniProt Q99436); assay: PROTEASOMEGLO assay of proteasome inhibition in MM cells; type: cell-based; conditions: for Inhibition of trypsin-like sites, 6 h +NC-022 / Inhibition of trypsin-like sites, 6 h −NC-022: washout
T1 construct: endogenous in cells; host or cells: NCI-H929, RPMI-8226 and other MM cell lines
T1 sequence (Q99436 44-277): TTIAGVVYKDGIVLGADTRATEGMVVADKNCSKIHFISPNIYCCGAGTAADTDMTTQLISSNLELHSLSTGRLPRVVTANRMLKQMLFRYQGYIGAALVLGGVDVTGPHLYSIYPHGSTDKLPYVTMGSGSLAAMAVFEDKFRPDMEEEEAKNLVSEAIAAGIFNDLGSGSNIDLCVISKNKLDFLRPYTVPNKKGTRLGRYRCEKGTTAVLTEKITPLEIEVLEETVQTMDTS
Experimental: (§2) Proteasome inhibition in MM cells was measured with luminogenic substrates using PROTEASOMEGLO assay (Promega). […] An aliquot of culture was pelleted and medium was removed and replaced with PBS. The resulting cell suspension was mixed with luminogenic substrates in the manufacturer-provided lysis/assay buffer. After 3 minutes mixing on an orbital shaker, the plate was incubated in the dark for additional 17 minutes, followed by the measurements of the luminescence, performed in triplicate for each substrate/data point. Data were analyzed as for purified proteasomes. […] Cells (1×10^6 per well of a 6-well plate) were incubated with the inhibitors for 4 hours at 37° C. and this was followed by a 2 hour incubation with 5 μM BODIPY-TMR-epoxomicin. Subsequently, the medium was removed and the cells were washed with PBS and harvested. […] The supernatant was collected and the protein concentration was determined by the Bradford assay, and used to normalize gel loading. The samples were analysed by SDS-PAGE and fluorescent densitometry as described for competition experiment in cell lysates. IC50 values were calculated from three independent experiments using […] PRISM software.

[2] = system: chymotrypsin-like sites (β5) of proteasome in MM cells; assay: as above; type: cell-based; conditions: KMS-12-BM, washout
Experimental: as §2

[3] = system: T2, chymotrypsin-like sites (β5) of proteasome in MM cells; assay: as above; type: cell-based; conditions: for Inhibition of chymotrypsin-like sites, 6 h −NC-022 / Inhibition of chymotrypsin-like sites, 6 h +NC-022: washout
T2 construct: other: NCI-H929; bortezomib 100 nM 1 h; bortezomib 11 nM 1 h; bortezomib 3.7 nM 1 h; bortezomib 33 nM 1 h; other: NCI-H9
Experimental: as §2

chymotrypsin-like sites = conditions: patients treated with bortezomib, maximal tolerated doses; cited from earlier work
[4] = KMS-12-BM, bortezomib 33.3 nM 1 h
[5] = KMS-12-BM, bortezomib 100 nM 1 h
[6] = KMS-12-BM, bortezomib 300 nM 1 h
[7] = KMS-12-BM, bortezomib 900 nM 1 h
[8] = NCI-H929, bortezomib 3.7 nM 1 h
[9] = NCI-H929, bortezomib 100 nM 1 h

CC(C)C[C@H](NC(=O)[C@H](Cc1ccccc1)NC(=O)c1cnccn1)B(O)O [Bortezomib]
Viability +NC-022 (KMS-12-BM cells; bortezomib 33.3 nM 1 h): 72 ± 1 % control | Viability −NC-022 (KMS-12-BM cells; bortezomib 33.3 nM 1 h): 98 ± 13 % control | Viability +NC-022 (KMS-12-BM cells; bortezomib 100 nM 1 h): 42 ± 10 % control | Viability −NC-022 (KMS-12-BM cells; bortezomib 100 nM 1 h): 92 ± 9 % control | Viability +NC-022 (KMS-12-BM cells; bortezomib 300 nM 1 h): 14 ± 11 % control | Viability −NC-022 (KMS-12-BM cells; bortezomib 300 nM 1 h): 66 ± 9 % control | Viability +NC-022 (KMS-12-BM cells; bortezomib 900 nM 1 h): 3.8 ± 2.5 % control | Viability −NC-022 (KMS-12-BM cells; bortezomib 900 nM 1 h): 14 ± 12 % control | Viability +NC-022 (NCI-H929 cells; bortezomib 3.7 nM 1 h): 85 ± 3 % control | Viability −NC-022 (NCI-H929 cells; bortezomib 3.7 nM 1 h): 107 ± 5 % control | Viability +NC-022 (NCI-H929 cells; bortezomib 11 nM 1 h): 65 ± 1 % control | Viability −NC-022 (NCI-H929 cells; bortezomib 11 nM 1 h): 106 ± 2 % control | Viability +NC-022 (NCI-H929 cells; bortezomib 33 nM 1 h): 19 ± 19 % control | Viability −NC-022 (NCI-H929 cells; bortezomib 33 nM 1 h): 53 ± 17 % control | Viability +NC-022 (NCI-H929 cells; bortezomib 100 nM 1 h): 1.9 ± 1.5 % control | Viability −NC-022 (NCI-H929 cells; bortezomib 100 nM 1 h): 2.9 ± 1.5 % control | Inhibition of trypsin-like sites, 1 h [1, 4]: 10 ± 11 % control | Inhibition of trypsin-like sites, 6 h +NC-022 [1, 4]: 92 ± 0 % control | Inhibition of trypsin-like sites, 6 h −NC-022 [1, 4]: 8 ± 15 % control | Inhibition of trypsin-like sites, 1 h [1, 5]: 19 ± 3 % control | Inhibition of trypsin-like sites, 6 h +NC-022 [1, 5]: 92 ± 1 % control | Inhibition of trypsin-like sites, 6 h −NC-022 [1, 5]: 15 ± 11 % control | Inhibition of trypsin-like sites, 1 h [1, 6]: 22 ± 12 % control | Inhibition of trypsin-like sites, 6 h +NC-022 [1, 6]: 91 ± 2 % control | Inhibition of trypsin-like sites, 6 h −NC-022 [1, 6]: 24 ± 18 % control | Inhibition of trypsin-like sites, 1 h [1, 7]: 28 ± 5 % control | Inhibition of trypsin-like sites, 6 h +NC-022 [1, 7]: 93 ± 1 % control | Inhibition of trypsin-like sites, 6 h −NC-022 [1, 7]: 26 ± 19 % control | Inhibition of trypsin-like sites, 1 h [1, 8]: 0 ± 7 % control | Inhibition of trypsin-like sites, 6 h +NC-022 [1, 8]: 93 ± 2 % control | Inhibition of trypsin-like sites, 6 h −NC-022 [1, 8]: 6 ± 4 % control | Inhibition of trypsin-like sites, 1 h ([1]; NCI-H929, bortezomib 11 nM 1 h): 8 ± 11 % control | Inhibition of trypsin-like sites, 6 h +NC-022 ([1]; NCI-H929, bortezomib 11 nM 1 h): 93 ± 2 % control | Inhibition of trypsin-like sites, 6 h −NC-022 ([1]; NCI-H929, bortezomib 11 nM 1 h): 14 ± 2 % control | Inhibition of trypsin-like sites, 1 h ([1]; NCI-H929, bortezomib 33 nM 1 h): 26 ± 15 % control | Inhibition of trypsin-like sites, 6 h +NC-022 ([1]; NCI-H929, bortezomib 33 nM 1 h): 94 ± 1 % control | Inhibition of trypsin-like sites, 6 h −NC-022 ([1]; NCI-H929, bortezomib 33 nM 1 h): 31 ± 0 % control | Inhibition of trypsin-like sites, 1 h [1, 9]: 36 ± 17 % control | Inhibition of trypsin-like sites, 6 h +NC-022 [1, 9]: 96 ± 1 % control | Inhibition of trypsin-like sites, 6 h −NC-022 [1, 9]: 45 ± 2 % control | Inhibition of chymotrypsin-like sites, 6 h +NC-022 ([2]; bortezomib 33.3 nM 1 h): 62 ± 7 % control | Inhibition of chymotrypsin-like sites, 6 h +NC-022 ([2]; bortezomib 100 nM 1 h): 75 ± 6 % control | Inhibition of chymotrypsin-like sites, 1 h [3, 4]: 82 ± 8 % control | Inhibition of chymotrypsin-like sites, 6 h −NC-022 [3, 4]: 56 ± 24 % control | Inhibition of chymotrypsin-like sites, 1 h [3, 5]: 90 ± 6 % control | Inhibition of chymotrypsin-like sites, 6 h −NC-022 [3, 5]: 64 ± 23 % control | Inhibition of chymotrypsin-like sites, 1 h [3, 6]: 93 ± 3 % control | Inhibition of chymotrypsin-like sites, 6 h +NC-022 [3, 6]: 83 ± 6 % control | Inhibition of chymotrypsin-like sites, 6 h −NC-022 [3, 6]: 76 ± 18 % control | Inhibition of chymotrypsin-like sites, 1 h [3, 7]: 93 ± 5 % control | Inhibition of chymotrypsin-like sites, 6 h +NC-022 [3, 7]: 88 ± 5 % control | Inhibition of chymotrypsin-like sites, 6 h −NC-022 [3, 7]: 84 ± 16 % control | Inhibition of chymotrypsin-like sites, 1 h [3, 8]: 9 ± 7 % control | Inhibition of chymotrypsin-like sites, 6 h +NC-022 [3, 8]: 14 ± 13 % control | Inhibition of chymotrypsin-like sites, 6 h −NC-022 [3, 8]: 13 ± 1 % control | Inhibition of chymotrypsin-like sites, 1 h ([3]; NCI-H929, bortezomib 11 nM 1 h): 64 ± 7 % control | Inhibition of chymotrypsin-like sites, 6 h +NC-022 ([3]; NCI-H929, bortezomib 11 nM 1 h): 34 ± 29 % control | Inhibition of chymotrypsin-like sites, 6 h −NC-022 ([3]; NCI-H929, bortezomib 11 nM 1 h): 41 ± 3.5 % control | Inhibition of chymotrypsin-like sites, 1 h ([3]; NCI-H929, bortezomib 33 nM 1 h): 89 ± 2 % control | Inhibition of chymotrypsin-like sites, 6 h +NC-022 ([3]; NCI-H929, bortezomib 33 nM 1 h): 48 ± 35 % control | Inhibition of chymotrypsin-like sites, 6 h −NC-022 ([3]; NCI-H929, bortezomib 33 nM 1 h): 85 ± 4 % control | Inhibition of chymotrypsin-like sites, 1 h [3, 9]: 96 ± 2 % control | Inhibition of chymotrypsin-like sites, 6 h +NC-022 [3, 9]: 93 ± 2 % control | Inhibition of chymotrypsin-like sites, 6 h −NC-022 [3, 9]: 86 ± 1 % control | inhibition of the chymotrypsin-like sites in patients (chymotrypsin-like sites): ≤ 70%
